Type in all cases: in vivo
One experiment has as its system Botrytis cinerea. Description: Test F: tomato Botrytis, preventive spray on tomato seedlings. In a few lines:
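Preventive run-off spray onto tomato seedlings at 200 ppm (equivalent to 500 g/ha) or 40 ppm. Suspensions: compound predissolved in acetone at 3% of final volume, then taken up in acetone/purified water 50/50 containing 250 ppm Trem® 014 surfactant.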

In another experiment the test system is Septoria nodorum. Description: Test C: wheat glume blotch, preventive spray on wheat seedlings. In a few lines: (§1)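 Test plants received run-off sprays of 200 ppm suspension (500 g/ha equivalent) or 40 ppm suspension. These suspensions were made by first dissolving each compound in acetone, then suspending it in an equal acetone/water mix carrying 250 ppm Trem 014.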

For experiment [1], the system named is Puccinia recondita f. sp. tritici. Description: Test B: wheat leaf rust, preventive spray on wheat seedlings. In a few lines:
as §1

In another experiment the test system is Septoria tritici. Description: Test D: wheat leaf blotch, preventive spray on wheat seedlings. The gist of the method: as §1
For the next experiment, the system named is Alternaria solani. As to the kind of experiment: Test H: tomato early blight, preventive spray on seedlings. An excerpt: General protocol for preparing test suspensions for Tests A-R: The test compounds were first dissolved in acetone in an amount equal to 3% of the final volume and then suspended at the desired concentration (in ppm) in acetone and purified water (50/50 mix) containing 250 ppm of the surfactant Trem® 014 (polyhydric alcohol esters). The resulting test suspensions were then used in tests A-R. In Tests A-M, compounds were sprayed as a 200 ppm test suspension (equivalent to a rate of 500 g/ha) or as a 40 ppm test suspension to the point of runoff on the test plants. In Tests N-R, compounds were sprayed as a 100 g/ha test suspension (equivalent to a rate of 100 ppm) on the test plants at an application volume of 1000 L/ha. The test suspension was sprayed to the point of run-off on wheat seedlings.

Experiment [2] has as its system Erysiphe graminis f. sp. tritici. Description: Test A: wheat powdery mildew, preventive spray on wheat seedlings. The gist of the method: as §1
For another experiment, the system named is Fusarium graminearum. Description: whole plant or invertebrate.
The test system of experiment [3] is Colletotrichum orbiculare. As to the kind of experiment: Test I: cucumber Colletotrichum anthracnose, preventive spray on cucumber seedlings. Particulars: 100 = 100% disease control, 0 = no control relative to controls. The gist of the method:
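Preventive foliar spray to run-off on cucumber seedlings, at 200 ppm (stated as equal to 500 g/ha) or 40 ppm. Test suspensions were made in acetone/water 50/50 containing 250 ppm Trem 014, after first dissolving compound in acetone at 3% of final volume.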

Setting [4] is: 200 ppm, 100 = 100% disease control, 0 = no control relative to controls.
[5] abbreviates: Fusarium graminearum, in Triticum aestivum, 192 h, read-out: Test E disease control rating.

Molecules are shown by their SMILES. Marks after values point to notes of the source that are not given here.

`COC[C@H](C)Nc1nccc(-c2ncnc(Nc3ccnc(Cl)c3)n2)n1` [Compound 27]: the “Test F disease control rating” value in the experiment with Botrytis cinerea (setting [4]) stood at 94%. Besides, the “Test C disease control rating” value with Septoria nodorum (setting [4]) was 99%. In experiment [1] (setting [4]), the “Test B disease control rating” value is given as 100%. In addition, the “Test D disease control rating” value in the experiment on Septoria tritici (setting [4]) came to 75%. The “Test H disease control rating” value in the experiment on Alternaria solani (40 ppm (marked *)) is 100* %. In addition, the “Test A disease control rating” value in experiment [2] (setting [4]) worked out at 0%. Also, the “Test E disease control rating” value in the experiment with Fusarium graminearum (setting [4]) was found to be 97%.
For `COC[C@H](C)Nc1nccc(-c2ncnc(Nc3cc(F)cc(C#N)c3)n2)n1` [Compound 36], the “Test F disease control rating” value in the experiment on Botrytis cinerea (40 ppm (marked *)) is listed as 99* %. The “Test C disease control rating” value in the experiment with Septoria nodorum (40 ppm (marked *)) is 100* %. For the same molecule, the “Test B disease control rating” value in experiment [1] (40 ppm (marked *)) is 99* %. Besides, in the experiment with Septoria tritici (40 ppm (marked *)), the “Test D disease control rating” value is listed as 29* %. In addition, in the experiment on Alternaria solani (40 ppm (marked *)), the “Test H disease control rating” value is 99* %. Moreover, the “Test A disease control rating” value in experiment [2] (40 ppm (marked *)) is 0* %. For the same molecule, the “Test E disease control rating” value in the experiment on Fusarium graminearum (40 ppm (marked *)) is reported as 91* %.
As to `COC[C@H](C)Nc1nccc(-c2ncnc(Nc3ccnc(F)c3)n2)n1` [Compound 31], the “Test F disease control rating” value in the experiment with Botrytis cinerea (setting [4]) turned out to be 99%. For the same molecule, the “Test C disease control rating” value with Septoria nodorum (setting [4]) is on record as 100%. Besides, the “Test B disease control rating” value in experiment [1] (setting [4]) is recorded as 100%. Besides, the “Test D disease control rating” value with Septoria tritici (setting [4]) is recorded as 88%. Also, the “Test H disease control rating” value with Alternaria solani (setting [4]) turned out to be 92%. For the same molecule, the “Test A disease control rating” value in experiment [2] (setting [4]) worked out at 0%. The “Test E disease control rating” value in the experiment on Fusarium graminearum (setting [4]) is given as 89%.
Turning to `COC[C@H](C)Nc1nccc(-c2ncnc(Nc3cc(F)cc([N+](=O)[O-])c3)n2)n1` [Compound 39, N-(3-fluoro-5-nitrophenyl)-4-[2-[[(1S)-2-methoxy-1-methylethyl]amino]-4-pyrimidinyl]-1,3,5-triazin-2-amine], the pest or weed control at 40 ppm worked out at 60% in the experiment on Botrytis cinerea (Botrytis cinerea, 120 h, 40 ppm (marked *), read-out: Test F disease control rating); 99% with Septoria nodorum (Parastagonospora nodorum, 216 h, 40 ppm (marked *), read-out: Test C disease control rating); 98% in experiment [1] (Puccinia recondita, 192 h, 40 ppm (marked *), read-out: Test B disease control rating); 24% in the experiment on Septoria tritici (Zymoseptoria tritici, 504 h, 40 ppm (marked *), read-out: Test D disease control rating); 99% with Alternaria solani (Alternaria solani, 168 h, 40 ppm (marked *), read-out: Test H disease control rating); 0% in experiment [2] (Blumeria graminis, 192 h, 40 ppm (marked *), read-out: Test A disease control rating). Moreover, the pest or weed control at 40 ppm in the experiment on Fusarium graminearum (setting [5]) was determined as 82%.
`Fc1cc(F)cc(Nc2ncnc(-c3ccnc(NC4CCOCC4)n3)n2)c1` [Compound 34]: the “Test F disease control rating” value in the experiment on Botrytis cinerea (setting [4]) was 0%. The “Test C disease control rating” value in the experiment with Septoria nodorum (setting [4]) is 100%. The “Test B disease control rating” value in experiment [1] (setting [4]) was determined as 98%. The “Test D disease control rating” value in the experiment on Septoria tritici (setting [4]) is listed as 59%. Moreover, the “Test H disease control rating” value with Alternaria solani (setting [4]) is reported as 94%. For the same molecule, the “Test A disease control rating” value in experiment [2] (setting [4]) was 0%. In addition, the “Test E disease control rating” value in the experiment on Fusarium graminearum (setting [4]) worked out at 68%.
In the case of `CC(=O)OCC(C)Nc1nccc(-c2ncnc(Nc3cccc(F)c3)n2)n1` (stereo not shown) [Compound 8], in the experiment on Botrytis cinerea (setting [4]), the “Test F disease control rating” value came to 0%. Also, the “Test C disease control rating” value with Septoria nodorum (setting [4]) worked out at 95%. Also, the “Test B disease control rating” value in experiment [1] (setting [4]) was 97%. Also, the “Test D disease control rating” value in the experiment with Septoria tritici (setting [4]) turned out to be 42%. Further, the “Test H disease control rating” value with Alternaria solani (setting [4]) was 41%. In addition, the “Test I disease control rating” value in experiment [3] (200 ppm) was determined as 0%. Further, the “Test E disease control rating” value in the experiment on Fusarium graminearum (setting [4]) turned out to be 77%.
On to `COC[C@H](C)Nc1nccc(-c2ncnc(Nc3cccc(F)c3)n2)n1` [Compound 5, N-(3-fluorophenyl)-4-[2-[[(1S)-2-methoxy-1-methylethyl]amino]-4-pyrimidinyl]-1,3,5-triazin-2-amine], for which the pest or weed control at 200 ppm in the experiment with Botrytis cinerea (Botrytis cinerea, 120 h, 200 ppm, 100 = 100% disease control, 0 = no control relative to controls, read-out: Test F disease control rating) amounted to 80%; in the experiment with Septoria nodorum (Parastagonospora nodorum, 216 h, 200 ppm, 100 = 100% disease control, 0 = no control relative to controls, read-out: Test C disease control rating), 100%; in experiment [1] (Puccinia recondita, 192 h, 200 ppm, 100 = 100% disease control, 0 = no control relative to controls, read-out: Test B disease control rating) it was 100%; in the experiment on Septoria tritici (Zymoseptoria tritici, 504 h, 200 ppm, 100 = 100% disease control, 0 = no control relative to controls, read-out: Test D disease control rating), 98%; with Alternaria solani (Alternaria solani, 168 h, 200 ppm, 100 = 100% disease control, 0 = no control relative to controls, read-out: Test H disease control rating) it was 0%; in experiment [3] (Colletotrichum orbiculare, 144 h, read-out: Test I disease control rating) it was 99%. For the same molecule, the pest or weed control at 200 ppm with Fusarium graminearum (setting [5]) was 98%.
